pIC50: −log10 of the molar value. The source made the active and inactive calls.
Legend:
Dihydrofolate reductase = molecular target: T1, Dihydrofolate reductase (Bos taurus, UniProt P00376); experiment: Inhibition of bovine liver DHFR
T1 sequence (P00376 whole entry): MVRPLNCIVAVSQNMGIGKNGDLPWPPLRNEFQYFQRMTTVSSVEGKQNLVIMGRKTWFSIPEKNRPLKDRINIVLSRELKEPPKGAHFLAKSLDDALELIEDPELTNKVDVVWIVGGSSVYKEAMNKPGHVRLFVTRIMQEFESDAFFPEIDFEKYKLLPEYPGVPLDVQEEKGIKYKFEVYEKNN

Staphylococcus aureus [1] = experiment: Antimicrobial activity against Staphylococcus aureus assessed as inhibition zone at 200 ug/disk after 24 hrs by disc-diffusion method; assay type: functional; conditions: read-out: IZ
Bacillus subtilis [2] = experiment: Antimicrobial activity against Bacillus subtilis assessed as inhibition zone at 200 ug/disk after 24 hrs by disc-diffusion method; assay type: functional; conditions: read-out: IZ
Escherichia coli = experiment: Antimicrobial activity against Escherichia coli assessed as inhibition zone at 200 ug/disk after 24 hrs by disc-diffusion method; assay type: functional; conditions: read-out: IZ
Pseudomonas aeruginosa = experiment: Antimicrobial activity against Pseudomonas aeruginosa assessed as inhibition zone at 200 ug/disk after 24 hrs by disc-diffusion method; assay type: functional; conditions: read-out: IZ
Candida albicans = experiment: Antimicrobial activity against Candida albicans assessed as inhibition zone at 200 ug/disk after 24 hrs by disc-diffusion method; assay type: functional; conditions: read-out: IZ
HL-60(TB) = experiment: Growth inhibition of human HL-60(TB) cells at 10 uM after 48 hrs; assay type: functional
[3] = (§1) Growth inhibition of human RPMI8226 cells at 10 uM after 48 hrs; assay type: functional; conditions: RPMI-8226, 48 h, read-out: GI
[4] = (§2) Growth inhibition of human HOP92 cells at 10 uM after 48 hrs; assay type: functional; conditions: HOP-92, 48 h, read-out: GI
MCF7 = experiment: Growth inhibition of human MCF7 cells at 10 uM after 48 hrs; assay type: functional
T47D = experiment: Growth inhibition of human T47D cells at 10 uM after 48 hrs; assay type: functional
Staphylococcus aureus [5] = experiment: Antimicrobial activity against Staphylococcus aureus assessed as inhibition of visible growth after 24 hrs by disc-diffusion method; assay type: functional, organism-based
Bacillus subtilis [6] = experiment: Antimicrobial activity against Bacillus subtilis assessed as inhibition of visible growth after 24 hrs by disc-diffusion method; assay type: functional, organism-based
CCRF-CEM = experiment: Growth inhibition of human CCRF-CEM cells at 10 uM after 48 hrs; assay type: functional
K562 = experiment: Growth inhibition of human K562 cells at 10 uM after 48 hrs; assay type: functional
MOLT-4 = experiment: Growth inhibition of human MOLT4 cells at 10 uM after 48 hrs; assay type: functional
RPMI-8226 = experiment: as §1; assay type: functional
SR = experiment: Growth inhibition of human SR cells at 10 uM after 48 hrs; assay type: functional
A549 = experiment: Growth inhibition of human A549 cells at 10 uM after 48 hrs; assay type: functional
HOP-92 = experiment: as §2; assay type: functional
NCI-H226 = experiment: Growth inhibition of human NCI-H226 cells at 10 uM after 48 hrs; assay type: functional
NCI-H23 = experiment: Growth inhibition of human NCI-H23 cells at 10 uM after 48 hrs; assay type: functional
NCI-H460 = experiment: Growth inhibition of human NCI-H460 cells at 10 uM after 48 hrs; assay type: functional
NCI-H522 = experiment: Growth inhibition of human NCI-H522 cells at 10 uM after 48 hrs; assay type: functional
COLO 205 = experiment: Growth inhibition of human COLO205 cells at 10 uM after 48 hrs; assay type: functional
HCC 2998 = experiment: Growth inhibition of human HCC2998 cells at 10 uM after 48 hrs; assay type: functional
HCT-116 = experiment: Growth inhibition of human HCT116 cells at 10 uM after 48 hrs; assay type: functional
HCT-15 = experiment: Growth inhibition of human HCT15 cells at 10 uM after 48 hrs; assay type: functional
HT-29 = experiment: Growth inhibition of human HT-29 cells at 10 uM after 48 hrs; assay type: functional
KM12 = experiment: Growth inhibition of human KM12 cells at 10 uM after 48 hrs; assay type: functional
SW-620 = experiment: Growth inhibition of human SW620 cells at 10 uM after 48 hrs; assay type: functional
SF-268 = experiment: Growth inhibition of human SF268 cells at 10 uM after 48 hrs; assay type: functional
SF-295 = experiment: Growth inhibition of human SF295 cells at 10 uM after 48 hrs; assay type: functional
SF-539 = experiment: Growth inhibition of human SF539 cells at 10 uM after 48 hrs; assay type: functional
SNB-19 = experiment: Growth inhibition of human SNB19 cells at 10 uM after 48 hrs; assay type: functional
SNB-75 = experiment: Growth inhibition of human SNB75 cells at 10 uM after 48 hrs; assay type: functional
U-251 = experiment: Growth inhibition of human U251 cells at 10 uM after 48 hrs; assay type: functional
LOX IMVI = experiment: Growth inhibition of human LOXIMVI cells at 10 uM after 48 hrs; assay type: functional
Malme-3M = experiment: Growth inhibition of human MALME-3M cells at 10 uM after 48 hrs; assay type: functional
M14 = experiment: Growth inhibition of human M14 cells at 10 uM after 48 hrs; assay type: functional
MDA-MB-435 = experiment: Growth inhibition of human MDA-MB-435 cells at 10 uM after 48 hrs; assay type: functional
SK-MEL-5 = experiment: Growth inhibition of human SK-MEL-5 cells at 10 uM after 48 hrs; assay type: functional
UACC-257 = experiment: Growth inhibition of human UACC257 cells at 10 uM after 48 hrs; assay type: functional
UACC-62 = experiment: Growth inhibition of human UACC62 cells at 10 uM after 48 hrs; assay type: functional
OVCAR-3 = experiment: Growth inhibition of human OVCAR3 cells at 10 uM after 48 hrs; assay type: functional
OVCAR-4 = experiment: Growth inhibition of human OVCAR4 cells at 10 uM after 48 hrs; assay type: functional
OVCAR-5 = experiment: Growth inhibition of human OVCAR5 cells at 10 uM after 48 hrs; assay type: functional
OVCAR-8 = experiment: Growth inhibition of human OVCAR8 cells at 10 uM after 48 hrs; assay type: functional
NCI/ADR-RES = experiment: Growth inhibition of human NCI-ADR-RES cells at 10 uM after 48 hrs; assay type: functional
786-0 = experiment: Growth inhibition of human 786-0 cells at 10 uM after 48 hrs; assay type: functional
A498 = experiment: Growth inhibition of human A498 cells at 10 uM after 48 hrs; assay type: functional
ACHN = experiment: Growth inhibition of human ACHN cells at 10 uM after 48 hrs; assay type: functional
CAKI-1 = experiment: Growth inhibition of human CAKI-1 cells at 10 uM after 48 hrs; assay type: functional
RXF 393 = experiment: Growth inhibition of human RXF393 cells at 10 uM after 48 hrs; assay type: functional
SN12C = experiment: Growth inhibition of human SN12C cells at 10 uM after 48 hrs; assay type: functional
TK-10 = experiment: Growth inhibition of human TK10 cells at 10 uM after 48 hrs; assay type: functional
UO-31 = experiment: Growth inhibition of human UO31 cells at 10 uM after 48 hrs; assay type: functional
PC-3 = experiment: Growth inhibition of human PC3 cells at 10 uM after 48 hrs; assay type: functional
MDA-MB-231 = experiment: Growth inhibition of human MDA-MB-231 cells at 10 uM after 48 hrs; assay type: functional
Hs-578T = experiment: Growth inhibition of human Hs 578T cells at 10 uM after 48 hrs; assay type: functional
BT-549 = experiment: Growth inhibition of human BT549 cells at 10 uM after 48 hrs; assay type: functional
MDA-MB-468 = experiment: Growth inhibition of human MDA-MB-468 cells at 10 uM after 48 hrs; assay type: functional

Nc1nnc(Sc2nc3ccc(Cl)cc3c(=O)n2-c2ccccc2)s1
5.22: pIC50 (Dihydrofolate reductase)
21.5%: inhibition of growth at 10 µM (HL-60(TB); HL-60, 48 h, read-out: GI)
8 mm: zone of inhibition at 200 µg/disc (Staphylococcus aureus [1]) | zone of inhibition at 200 µg/disc (Bacillus subtilis [2]) | zone of inhibition at 200 µg/disc (Escherichia coli) | zone of inhibition at 200 µg/disc (Pseudomonas aeruginosa) | zone of inhibition at 200 µg/disc (Candida albicans)
28.6%: inhibition of growth at 10 µM [4]
19.1%: inhibition of growth at 10 µM [3]
21.4%: inhibition of growth at 10 µM (T47D; read-out: GI)
16.4%: inhibition of growth at 10 µM (MCF7; MCF7, 48 h, read-out: GI)

Cc1ccc2nc(Sc3sc(N)nc3C)n(-c3ccc(Oc4ccccc4)cc3)c(=O)c2c1
8 mm: zone of inhibition at 200 µg/disc (Pseudomonas aeruginosa) | zone of inhibition at 200 µg/disc (Candida albicans)
active: Activity (Staphylococcus aureus [5]) | Activity (Bacillus subtilis [6])
22 mm: zone of inhibition at 200 µg/disc (Bacillus subtilis [2])
5.70: pIC50 (Dihydrofolate reductase)
inactive: growth inhibition (GI) (CCRF-CEM) | growth inhibition (GI) (HL-60(TB)) | growth inhibition (GI) (K562) | growth inhibition (GI) (MOLT-4) | growth inhibition (GI) (RPMI-8226) | growth inhibition (GI) (SR) | growth inhibition (GI) (A549) | growth inhibition (GI) (HOP-92) | growth inhibition (GI) (NCI-H226) | growth inhibition (GI) (NCI-H23) | growth inhibition (GI) (NCI-H460) | growth inhibition (GI) (NCI-H522) | growth inhibition (GI) (COLO 205) | growth inhibition (GI) (HCC 2998) | growth inhibition (GI) (HCT-116) | growth inhibition (GI) (HCT-15) | growth inhibition (GI) (HT-29) | growth inhibition (GI) (KM12) | growth inhibition (GI) (SW-620) | growth inhibition (GI) (SF-268) | growth inhibition (GI) (SF-295) | growth inhibition (GI) (SF-539) | growth inhibition (GI) (SNB-19) | growth inhibition (GI) (SNB-75) | growth inhibition (GI) (U-251) | growth inhibition (GI) (LOX IMVI) | growth inhibition (GI) (Malme-3M) | growth inhibition (GI) (M14) | growth inhibition (GI) (MDA-MB-435) | growth inhibition (GI) (SK-MEL-5) | growth inhibition (GI) (UACC-257) | growth inhibition (GI) (UACC-62) | growth inhibition (GI) (OVCAR-3) | growth inhibition (GI) (OVCAR-4) | growth inhibition (GI) (OVCAR-5) | growth inhibition (GI) (OVCAR-8) | growth inhibition (GI) (NCI/ADR-RES) | growth inhibition (GI) (786-0) | growth inhibition (GI) (A498) | growth inhibition (GI) (ACHN) | growth inhibition (GI) (CAKI-1) | growth inhibition (GI) (RXF 393) | growth inhibition (GI) (SN12C) | growth inhibition (GI) (TK-10) | growth inhibition (GI) (UO-31) | growth inhibition (GI) (PC-3) | growth inhibition (GI) (MCF7) | growth inhibition (GI) (MDA-MB-231) | growth inhibition (GI) (Hs-578T) | growth inhibition (GI) (BT-549) | growth inhibition (GI) (T47D) | growth inhibition (GI) (MDA-MB-468)
14 mm: zone of inhibition at 200 µg/disc (Escherichia coli)
26 mm: zone of inhibition at 200 µg/disc (Staphylococcus aureus [1])

From ChEMBL document CHEMBL3352542, “Synthesis, biological evaluation and molecular modeling study of 2-(1,3,4-thiadiazolyl-thio and 4-methyl-thiazolyl-thio)-quinazolin-4-ones as a new class of DHFR inhibitors” (Bioorg Med Chem Lett, 2014)
